In ChEMBL document CHEMBL3997763 (Medchemcomm, 2016):
Calls of active or inactive are those of the source. No cut-off for these calls is given here.

Assays:
[1] = tested on: Rattus norvegicus; assay: Hypolipidemic activity in HFD-induced Charles Foster rat chronic hyperlipidemia model assessed as reduction in serum total cholesterol level at 10 mg/kg administered via oral gavage for 30 days simultaneously with high fat diet by enzymatic method relative to HFD treated vehicle; type: functional; settings: 720 h
[2] = target: T1, 3-hydroxy-3-methylglutaryl-coenzyme A reductase (Homo sapiens) (UniProt P04035); assay: Inhibition of human HMG-CoA reductase catalytic domain at 50 uM using HMG-CoA as substrate in presence of NADPH by colorimetric method relative to control
T1 sequence (whole entry): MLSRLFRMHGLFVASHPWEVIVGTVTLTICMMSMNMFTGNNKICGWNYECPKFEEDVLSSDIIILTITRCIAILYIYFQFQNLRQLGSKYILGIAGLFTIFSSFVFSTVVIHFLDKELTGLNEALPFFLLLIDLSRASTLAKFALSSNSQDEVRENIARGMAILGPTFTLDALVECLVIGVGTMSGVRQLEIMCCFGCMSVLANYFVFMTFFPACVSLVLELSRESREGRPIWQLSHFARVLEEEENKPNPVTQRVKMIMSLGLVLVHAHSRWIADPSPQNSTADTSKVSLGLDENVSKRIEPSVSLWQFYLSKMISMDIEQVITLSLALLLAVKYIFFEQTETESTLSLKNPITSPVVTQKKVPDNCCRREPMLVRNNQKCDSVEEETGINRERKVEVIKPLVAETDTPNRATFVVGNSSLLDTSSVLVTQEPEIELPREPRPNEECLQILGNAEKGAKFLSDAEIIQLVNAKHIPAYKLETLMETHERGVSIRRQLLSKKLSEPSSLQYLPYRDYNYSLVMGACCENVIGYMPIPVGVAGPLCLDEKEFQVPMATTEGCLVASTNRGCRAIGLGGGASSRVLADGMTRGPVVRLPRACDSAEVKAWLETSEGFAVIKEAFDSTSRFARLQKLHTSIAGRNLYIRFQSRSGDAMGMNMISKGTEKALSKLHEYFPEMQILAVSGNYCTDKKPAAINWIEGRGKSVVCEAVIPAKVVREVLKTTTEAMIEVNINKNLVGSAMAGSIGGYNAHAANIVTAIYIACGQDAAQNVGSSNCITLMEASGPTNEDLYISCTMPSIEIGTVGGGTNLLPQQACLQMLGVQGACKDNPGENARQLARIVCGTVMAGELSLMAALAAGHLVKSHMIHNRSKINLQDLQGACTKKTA

[3] = tested on: Rattus norvegicus; assay: Hypolipidemic activity in HFD-induced Charles Foster rat assessed as increase in serum HDL-TC at 10 mg/kg administered as single dose via oral gavage for 30 days simultaneously with high fat diet; type: functional, organism-based
[4] = tested on: Rattus norvegicus; assay: Hypolipidemic activity in HFD-induced Charles Foster rat assessed as reduction in serum VLDL-TG at 10 mg/kg administered as single dose via oral gavage for 30 days simultaneously with high fat diet; type: functional, organism-based
[5] = tested on: Rattus norvegicus; assay: Hypolipidemic activity in HFD-induced Charles Foster rat assessed as increase in serum HDL-TG at 10 mg/kg administered as single dose via oral gavage for 30 days simultaneously with high fat diet; type: functional, organism-based
[6] = tested on: Rattus norvegicus; assay: Hypolipidemic activity in HFD-induced Charles Foster rat assessed as inhibition of hepatic HMG-CoA reductase activity by measuring […] at 10 mg/kg administered as single dose via oral gavage for 30 days simultaneously with high fat diet by colorimetric method; type: functional, organism-based
[7] = tested on: Rattus norvegicus; assay: Hypolipidemic activity in HFD-induced Charles Foster rat assessed as reduction in serum LDL-TC at 10 mg/kg administered as single dose via oral gavage for 30 days simultaneously with high fat diet; type: functional, organism-based
[8] = tested on: Rattus norvegicus; assay: Hypolipidemic activity in HFD-induced Charles Foster rat chronic hyperlipidemia model assessed as reduction in serum AST level at 10 mg/kg administered via oral gavage for 30 days simultaneously with high fat diet by colorimetric method relative to HFD treated vehicle; type: functional; settings: 720 h
[9] = target: T1, 3-hydroxy-3-methylglutaryl-coenzyme A reductase (Homo sapiens); assay: Inhibition of human HMG-CoA reductase catalytic domain at 5 uM using HMG-CoA as substrate in presence of NADPH by colorimetric method relative to control
[10] = tested on: Rattus norvegicus; assay: Hypolipidemic activity in HFD-induced Charles Foster rat chronic hyperlipidemia model assessed as reduction in serum triglyceride level at 10 mg/kg administered via oral gavage for 30 days simultaneously with high fat diet by enzymatic method relative to HFD treated vehicle; type: functional; settings: 720 h
[11] = tested on: Rattus norvegicus; assay: Hypolipidemic activity in HFD-induced Charles Foster rat chronic hyperlipidemia model assessed as reduction in serum ALT level at 10 mg/kg administered via oral gavage for 30 days simultaneously with high fat diet by colorimetric method relative to HFD treated vehicle; type: functional; settings: 720 h
[12] = target: T1, 3-hydroxy-3-methylglutaryl-coenzyme A reductase (Homo sapiens); assay: Inhibition of human HMG-CoA reductase catalytic domain at 100 uM using HMG-CoA as substrate in presence of NADPH by colorimetric method relative to control
[13] = tested on: Rattus norvegicus; assay: Antihyperlipidemic activity in triton WR-1339 induced Charles Foster rat hyperlipidemia model assessed as inhibition of total cholesterol level in serum at 10 mg/kg, po administered simultaneously with triton WR-1339 after 18 hrs by enzymatic method relative to control; type: functional
[14] = tested on: Rattus norvegicus; assay: Hypolipidemic activity in HFD-induced Charles Foster rat chronic hyperlipidemia model assessed as reduction in liver triglyceride level at 10 mg/kg administered via oral gavage for 30 days simultaneously with high fat diet by enzymatic method relative to HFD treated vehicle; type: functional; settings: 720 h
[15] = tested on: Rattus norvegicus; assay: Antihyperlipidemic activity in triton WR-1339 induced Charles Foster rat hyperlipidemia model assessed as inhibition of triglyceride level in serum at 10 mg/kg, po administered simultaneously with triton WR-1339 after 18 hrs by enzymatic method relative to control; type: functional
[16] = target: T1, 3-hydroxy-3-methylglutaryl-coenzyme A reductase (Homo sapiens); assay: Inhibition of human HMG-CoA reductase catalytic domain at 10 uM using HMG-CoA as substrate in presence of NADPH by colorimetric method relative to control
[17] = target: T1, 3-hydroxy-3-methylglutaryl-coenzyme A reductase (Homo sapiens); assay: Inhibition of human HMG-CoA reductase catalytic domain at 1 uM using HMG-CoA as substrate in presence of NADPH by colorimetric method relative to control
[18] = tested on: Rattus norvegicus; assay: Hypolipidemic activity in HFD-induced Charles Foster rat assessed as increase in lipolytic activity of LPL in liver at 10 mg/kg administered as single dose via oral gavage for 30 days simultaneously with high fat diet; type: functional, organism-based
[19] = target: T1, 3-hydroxy-3-methylglutaryl-coenzyme A reductase (Homo sapiens); assay: Inhibition of human HMG-CoA reductase catalytic domain at 20 uM using HMG-CoA as substrate in presence of NADPH by colorimetric method relative to control
[20] = tested on: Rattus norvegicus; assay: Hypolipidemic activity in HFD-induced Charles Foster rat assessed as increase in human I125-LDL binding to rat liver plasma membrane at 10 mg/kg administered as single dose via oral gavage for 30 days simultaneously with high fat diet by minigamma counting; type: functional, organism-based
[21] = tested on: Rattus norvegicus; assay: Antihyperlipidemic activity in triton WR-1339 induced Charles Foster rat hyperlipidemia model assessed as inhibition of phospholipid level in serum at 10 mg/kg, po administered simultaneously with triton WR-1339 after 18 hrs by enzymatic method relative to control; type: functional
[22] = tested on: Rattus norvegicus; assay: Hypolipidemic activity in HFD-induced Charles Foster rat assessed as increase in serum LCAT activity at 10 mg/kg administered as single dose via oral gavage for 30 days simultaneously with high fat diet by photometric method; type: functional, organism-based
[23] = tested on: Rattus norvegicus; assay: Hypolipidemic activity in HFD-induced Charles Foster rat chronic hyperlipidemia model assessed as reduction in liver total cholesterol level at 10 mg/kg administered via oral gavage for 30 days simultaneously with high fat diet by enzymatic method relative to HFD treated vehicle; type: functional; settings: 720 h
[24] = tested on: Rattus norvegicus; assay: Hypolipidemic activity in HFD-induced Charles Foster rat assessed as reduction in serum VLDL-TC at 10 mg/kg administered as single dose via oral gavage for 30 days simultaneously with high fat diet; type: functional, organism-based
[25] = tested on: Rattus norvegicus; assay: Hypolipidemic activity in HFD-induced Charles Foster rat assessed as reduction in serum LDL-TG at 10 mg/kg administered as single dose via oral gavage for 30 days simultaneously with high fat diet; type: functional, organism-based

CC(C)c1c(C(=O)Nc2ccccc2)c(-c2ccccc2)c(-c2ccc(F)cc2)n1CC[C@@H](O)C[C@@H](O)CC(=O)O [ATORVASTATIN]
inhibition in vivo at 10 mg/kg [1]: 25%
inhibition [2]: 76%
Activity [3]: Active
Activity [4]: Active
Activity [5]: Active
inhibition [6]: Active
Activity [7]: Active
inhibition in vivo at 10 mg/kg [8]: 29%
inhibition [9]: 35%
inhibition in vivo at 10 mg/kg [10]: 26%
inhibition in vivo at 10 mg/kg [11]: 25%
inhibition [12]: 83%
inhibition in vivo at 10 mg/kg [13]: 36%
inhibition in vivo at 10 mg/kg [14]: 30%
inhibition in vivo at 10 mg/kg [15]: 35%
inhibition [16]: 60 to 63%
inhibition [17]: 20%
Activity [18]: Active
inhibition [19]: 69%
Activity [20]: Active
inhibition in vivo at 10 mg/kg [21]: 35%
Activity [22]: Active
inhibition in vivo at 10 mg/kg [23]: 28%
Activity [24]: Active
Activity [25]: Active
